According to patent US11076595B2, “1-(n,n-disubstituted carbamoyl) 4-(substituted sulfonyl)triazolin-5-one derivative, 4-(n,n-disubstituted carbamoyl) 1-(substituted sulfonyl)triazolin-5-one derivative, and herbicide containing said derivative as active ingredient” (HOKKO CHEMICAL INDUSTRY CO., LTD., priority 2017, dated 2021):

Tests used:
Type in all cases: in vivo
Chenopodium album [1] = experiment: Test Example 13: herbicidal effect test by soil treatment in upland field; settings: 120 g/10a, 14 days after treatment
Method in brief: (§1)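 Suppression rate (%) is calculated from mean plant dry weight in treated versus untreated plots, 14 days after treatment, with duplicate plots per concentration. Seeds (20 per species) are mixed into the surface centimetre of alluvial soil, and the diluted emulsifiable concentrate is sprayed onto the soil the following day at 120 g a.i. per 10 are.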

Echinochloa crus-galli [2] = experiment: as above; settings: 120 g/10a, 14 days after treatment
Method in brief: as §1

Amaranthus viridis [3] = experiment: as above; settings: 120 g/10a, 14 days after treatment
Method in brief: as §1

crabgrass [4] = experiment: as above; settings: 120 g/10a, 14 days after treatment
Method in brief: as §1

Scirpus juncoides [5] = experiment: Test Example 12: herbicidal effect test by treatment during growing period in paddy field; settings: 120 g/10a; treatment seven days after sowing in flooded paddy pot; assessed 14 days after treatment
Method in brief: (§2)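 Puddled, fertilized paddy soil in Wagner pots, sown with 30 seeds per species at 0–1 cm and flooded to ~3 cm in a glass greenhouse. Emulsifiable concentrate dripped into water 7 days after sowing at 120 g a.i. per 10 are. Suppression % from dry weight vs untreated, 14 days post-treatment, two replicates.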

Echinochloa crus-galli [6] = experiment: as above; settings: 120 g/10a; treatment seven days after sowing in flooded paddy pot; assessed 14 days after treatment
Method in brief: as §2

Monochoria vaginalis [7] = experiment: as above; settings: 120 g/10a; treatment seven days after sowing in flooded paddy pot; assessed 14 days after treatment
Method in brief: as §2

Lindernia pyxidaria [8] = experiment: as above; settings: 120 g/10a; treatment seven days after sowing in flooded paddy pot; assessed 14 days after treatment
Method in brief: as §2

Chenopodium album [9] = experiment: Test Example 14: herbicidal effect test by foliage treatment in upland field; settings: 7 days after sowing, 120 g/10a, 14 days after treatment
Method in brief: (§3)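 Emulsifiable concentrate, water-diluted, is applied post-emergence to 7-day-old sowings in field soil at 120 g active ingredient per 10 are. The weed suppression rate derives from average dry weights versus untreated controls, measured 14 days later.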

crabgrass [10] = experiment: as above; settings: 7 days after sowing, 120 g/10a, 14 days after treatment
Method in brief: as §3

Scirpus juncoides [11] = experiment: Test Example 11: herbicidal effect test by soil treatment in paddy field; settings: 120 g/10a active ingredient, 14 days after treatment
Method in brief: (§4)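 Weed suppression rate (%) was calculated as (1 − mean treated dry weight / mean untreated dry weight) × 100 at 14 days after treatment, two replicates per plot. Seeds were sown at 0–1 cm in flooded (about 3 cm) puddled paddy soil and treated immediately at 120 g active ingredient per 10 are.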

Echinochloa crus-galli [12] = experiment: as above; settings: 120 g/10a active ingredient, 14 days after treatment
Method in brief: as §4

Monochoria vaginalis [13] = experiment: as above; settings: 120 g/10a active ingredient, 14 days after treatment
Method in brief: as §4

Lindernia pyxidaria [14] = experiment: as above; settings: 120 g/10a active ingredient, 14 days after treatment
Method in brief: as §4

Echinochloa crus-galli [15] = experiment: Test Example 14: herbicidal effect test by foliage treatment in upland field; settings: 7 days after sowing, 120 g/10a, 14 days after treatment
Method in brief: as §3

Amaranthus viridis [16] = experiment: as above; settings: 7 days after sowing, 120 g/10a, 14 days after treatment
Method in brief: as §3

Compound	herbicidal effect, Chenopodium album (Chenopodium album [1]) [%]	herbicidal effect, Echinochloa crus-galli (Echinochloa crus-galli [2]) [%]	herbicidal effect, Amaranthus viridis (Amaranthus viridis [3]) [%]	herbicidal effect, Crabgrass (crabgrass [4]) [%]	Weed suppression rate (%) Scirpus juncoides (Scirpus juncoides [5]) [%]	Weed suppression rate (%) Echinochloa crus-galli (Echinochloa crus-galli [6]) [%]	Weed suppression rate (%) Monochoria vaginalis (Monochoria vaginalis [7]) [%]	Weed suppression rate (%) Lindemia pyxidaria (Lindernia pyxidaria [8]) [%]	herbicidal effect, Chenopodium album (Chenopodium album [9]) [%]	herbicidal effect, Crabgrass (crabgrass [10]) [%]	Weed suppression rate (%) Scirpus juncoides (Scirpus juncoides [11]) [%]	Weed suppression rate (%) Echinochloa crus-galli (Echinochloa crus-galli [12]) [%]	Weed suppression rate (%) Monochoria vaginalis (Monochoria vaginalis [13]) [%]	Weed suppression rate (%) Lindemia pyxidaria (Lindernia pyxidaria [14]) [%]	herbicidal effect, Echinochloa crus-galli (Echinochloa crus-galli [15]) [%]	herbicidal effect, Amaranthus viridis (Amaranthus viridis [16]) [%]
CC(C)N(C(=O)n1cnn(S(=O)(=O)N(C)C)c1=O)c1ccc(Cl)cn1 [Compound 11-1090]	50	80	50	90	90	100	60	90	40	90	90	100	60	100	90	40
CC(C)N(C(=O)n1cnn(S(=O)(=O)C(C)C)c1=O)c1ccc(F)cc1F [Compound 11-59]	100	100	90	100	90	100	100	80	80	90	100	100	100	100	80	90
CC(C)N(C(=O)n1cnn(S(=O)(=O)C(C)C)c1=O)c1ccc(Cl)cn1 [Compound 11-85]	60	100	90	100	70	90	90	90	80	90	90	90	80	80	80	90
COc1ccc(S(=O)(=O)n2ncn(C(=O)N(c3cccc(F)c3F)C(C)C)c2=O)cc1 [Compound 11-1149]	30	70	30	70	100	100	100	80	70	80	100	100	100	100	70	30
CC(C)N(C(=O)n1cnn(S(=O)(=O)C2CCCCC2)c1=O)c1ccccc1 [Compound 11-283]	80	80	90	90	90	90	90	90	80	90	90	100	70	90	80	90
CC(C)N(C(=O)n1cnn(S(C)(=O)=O)c1=O)c1c(F)cccc1F [Compound 11-14]	60	100	70	100	100	100	80	80	30	100	90	100	80	100	100	30
CCN(C)S(=O)(=O)n1ncn(C(=O)N(c2ccc(F)cc2F)C(C)C)c1=O [Compound 11-1098]	100	100	90	100	70	100	80	70	80	90	100	100	80	100	80	90
CC(C)N(C(=O)n1cnn(S(=O)(=O)C2CCCCC2)c1=O)c1ccc(F)cc1F [Compound 11-294]	80	80	90	90	90	100	90	80	80	90	100	100	100	100	80	90
Cc1ccc(N(C(=O)n2cnn(S(=O)(=O)C(C)C)c2=O)C(C)C)c(F)c1 [Compound 11-73]	80	80	90	90	90	90	80	80	80	90	90	90	80	80	80	90
CC(C)N(C(=O)n1cnn(S(=O)(=O)c2ccc(F)cc2)c1=O)c1ccc(F)cc1F [Compound 11-475]	90	100	80	100	90	90	90	90	40	90	90	100	90	90	70	40
